Where two headings read alike, the source gives them in different places.
Columns and labels:
[1] = system: Mycosphaerella graminicola; Anamorph: Septoria tritici; test: Fungicidal activity: Leaf Blotch of Wheat (SEPTTR); type: in vivo; conditions: Zymoseptoria tritici, wheat leaf blotch; for pest or weed control at 121.5 g/ha: Low Volume (121.5 g/H); for pest or weed control at 100 µg/mL: High Volume (100 ppm)
Method in brief: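 Compounds were dissolved in acetone, diluted with nine volumes of water containing 110 ppm Triton X-100, and sprayed to run-off on first-leaf Yuma wheat seedlings inoculated with Septoria tritici spores before or after treatment. Plants were held in a dew chamber, then a 20° C. greenhouse. Percent control was derived from disease severity relative to untreated plants.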

[2] = system: Puccinia triticina; test: Fungicidal activity: Wheat Brown Rust (PUCCRT); type: in vivo; conditions: for pest or weed control at 121.5 g/ha: Low Volume (121.5 g/H); for pest or weed control at 100 µg/mL: High Volume (100 ppm)
Method in brief: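 Wheat seedlings (Yuma, first leaf) sprayed to run-off with compound in acetone/water with Triton X-100, inoculated with Puccinia triticina before or after treatment. Held overnight in dark dew at 22° C, then greenhouse at 24° C; percent disease control from severity versus untreated plants.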

[3] = 24 h, 1 Day Protectant, read-out: SEPTTR 1 DP disease control
[4] = 72 h, 3 Day Curative, read-out: SEPTTR 3 DC disease control
[5] = 24 h, 1 Day Protectant, read-out: PUCCRT 1 DP disease control
[6] = 72 h, 3 Day Curative, read-out: PUCCRT 3 DC disease control

Structure (SMILES)	pest or weed control at 121.5 g/ha [1, 3]	pest or weed control at 121.5 g/ha [1, 4]	pest or weed control at 121.5 g/ha [2, 5]	pest or weed control at 121.5 g/ha [2, 6]	pest or weed control at 100 µg/mL [1, 3]	pest or weed control at 100 µg/mL [1, 4]	pest or weed control at 100 µg/mL [2, 5]	pest or weed control at 100 µg/mL [2, 6]
COc1ccnc(C(=O)N[C@H]2COC[C@H](Cc3ccccc3)[C@@H](CCc3ccccc3)[C@H](C)OC2=O)c1OC(C)=O [compound 29]	> 70%	> 70%	> 70%	> 70%	–	–	–	–
COc1ccnc(C(=O)N[C@H]2COC[C@H](Cc3ccccc3)[C@@H](CCC(C)C)[C@H](C)OC2=O)c1O [compound 148]	–	–	–	–	> 70%	> 70%	< 70%	< 70%
COc1ccnc(C(=O)N[C@H]2COC[C@H](CCCc3ccccc3)[C@@H](CC(C)C)[C@H](C)OC2=O)c1OC(C)=O [compound 62]	> 70%	> 70%	> 70%	> 70%	–	–	–	–
COc1ccnc(C(=O)N[C@H]2COC[C@H](Cc3ccccc3)[C@@H](CC(C)C)[C@H](C)OC2=O)c1OCOC(=O)C(C)C [compound 20]	> 70%	> 70%	> 70%	> 70%	–	–	–	–
COc1ccnc(C(=O)N[C@H]2COC[C@H](Cc3ccccc3)[C@@H](Cc3ccc(F)cc3)[C@H](C)OC2=O)c1OC(C)=O [compound 60]	> 70%	< 70%	< 70%	< 70%	–	–	–	–
COc1ccnc(C(=O)N[C@H]2COC[C@H](Cc3ccccc3)[C@@H](COCC(C)C)[C@H](C)OC2=O)c1OCOC(C)=O [compound 12]	> 70%	> 70%	> 70%	< 70%	> 70%	> 70%	> 70%	> 70%
COc1ccnc(C(=O)N[C@H]2COC[C@H](CCC(C)C)[C@@H](Cc3ccccc3)[C@H](C)OC2=O)c1OCOC(C)=O [compound 44]	> 70%	> 70%	> 70%	< 70%	–	–	–	–
COc1ccnc(C(=O)N[C@H]2COC[C@H](Cc3ccc(C(F)(F)F)cc3)[C@@H](Cc3ccc(OC(F)(F)F)cc3)[C@H](C)OC2=O)c1O [compound 138]	–	–	–	–	< 70%	< 70%	< 70%	< 70%
COc1ccnc(C(=O)N[C@H]2COC[C@H](Cc3ccccc3)[C@@H](Cc3ccc(OC(F)(F)F)cc3)[C@H](C)OC2=O)c1OCOC(C)=O [compound 49]	> 70%	< 70%	> 70%	< 70%	–	–	–	–
CCC[C@H]1COC[C@H](NC(=O)c2nccc(OC)c2O)C(=O)O[C@@H](C)[C@@H]1CC(C)C [compound 142]	–	–	–	–	< 70%	< 70%	< 70%	< 70%
COc1ccnc(C(=O)N[C@H]2COC[C@H](Cc3ccccc3)[C@@H](CC(C)C)[C@H](C)OC2=O)c1OCOC(C)=O [compound 19]	> 70%	> 70%	> 70%	> 70%	–	–	–	–
COc1ccnc(C(=O)N[C@H]2COC[C@H](CCC(C)C)[C@@H](Cc3ccccc3)[C@H](C)OC2=O)c1OC(C)=O [compound 46]	> 70%	> 70%	> 70%	> 70%	–	–	–	–
CCC[C@H]1COC[C@H](NC(=O)c2nccc(OC)c2OCOC(C)=O)C(=O)O[C@@H](C)[C@@H]1CC(C)C [compound 63]	< 70%	< 70%	> 70%	< 70%	–	–	–	–
COc1ccnc(C(=O)N[C@H]2COC[C@H](Cc3ccc(C(F)(F)F)cc3)[C@@H](Cc3ccc(F)cc3)[C@H](C)OC2=O)c1OC(C)=O [compound 79]	> 70%	< 70%	> 70%	< 70%	–	–	–	–
CCOCC(=O)OCOc1c(OC)ccnc1C(=O)N[C@H]1COC[C@H](CCC(C)C)[C@@H](CCc2ccccc2)[C@H](C)OC1=O [compound 36]	> 70%	> 70%	> 70%	< 70%	–	–	–	–
COc1ccnc(C(=O)N[C@H]2COC[C@H](Cc3ccccc3)[C@@H](C3CCCC3)[C@H](C)OC2=O)c1OCOC(C)=O [compound 38]	> 70%	> 70%	> 70%	> 70%	–	–	–	–
COc1ccnc(C(=O)N[C@H]2COC[C@@H]3CCCC[C@H]3[C@@H](C)OC2=O)c1O [compound 114]	–	–	–	–	> 70%	< 70%	> 70%	> 70%
CCC[C@H]1COC[C@H](NC(=O)c2nccc(OC)c2OCOC(C)=O)C(=O)O[C@@H](C)[C@@H]1c1ccccc1 [compound 97]	> 70%	> 70%	> 70%	> 70%	–	–	–	–

Reference: US9955691B2, “Macrocyclic picolinamides as fungicides” (DOW AGROSCIENCES LLC, priority 2014, dated 2018)
